In patent US6902881B2, “Compounds and methods for regulating cell differentiation” (priority 2000, dated 2005):

Legend:
[1] = test system: UV-irradiated Xenopus laevis stage 1 embryos; assay: Rescue of dorsal axis formation in UV-irradiated embryos, scored by dorsal anterior index (DAI); type: in vivo
Protocol: (§1) Several hundred spawned eggs were fertilized in vitro and incubated at 16 to 18° C. […] The vegetal surfaces of some of these embryos were irradiated with one or the other sources of UV light within 10 min of fertilization for 20-30 min. […] The embryos were not disturbed, touched or tipped from the moment of fertilization, during UV irradiation or for the duration of development. […] A score of 5 defines a normal dorsal axis, 4 a microcephalic, 3 a cyclopic, 2 an anoptic, 1 an acephalic and 0 an adorsal embryo.
The biological activities of biliverdin and its derivatives were tested by adding each of them to the incubation solution of embryos after the termination of the UV light exposure to either 254 or 366 nm UV light and at selected time periods between T ƒfm=0.4-2.5. Final concentrations of biliverdin ranged from 0.05 to 5 μM in less than 1% ethanol. […] An extinction coefficient of 51,000 was utilized to calculate their concentrations. All petri dishes were covered with aluminum foil to avoid light exposure. The extent of dorsal axis formation was analyzed by the morphological criteria described above.
(§2) Stage 1 embryos were exposed to UV-light source emitting at 366 nm (Mineralight UVSL-58, Ultraviolet Products, Inc., San Gabriel, Calif.) as described and then incubated in the presence of pure candidate DCD or commercially available biliverdin (Sigma-Aldrich, St. Louis, Mo.) at final concentrations from 0.05 to 1.2 μM in less than 1% ethanol. The concentrations were calculated using a molar extinction coefficient of 51,000. One group of embryos was not exposed to UV light but was incubated in the presence of 0.5 μM of candidate DCD.

[2] = test system: control fertilized oocytes unexposed to UV light; assay: Development of control embryos unexposed to UV light incubated with the compounds (dysmorphogen test); details: control fertilized oocytes unexposed to UV light incubated with the compound
Protocol: as §1
The biological activities of biliverdin and its derivatives were tested by adding each of them to the incubation solution of embryos after the termination of the UV light exposure to either 254 or 366 nm UV light and at selected time periods between T ƒfm=0.4-2.5. Final concentrations of biliverdin ranged from 0.05 to 5 μM in less than 1% ethanol. […] The extent of dorsal axis formation was analyzed by the morphological criteria described above.
as §2, with “One group of embryos was not exposed to UV light but was incubated in the presence of 0.5 μM of candidate DCD.” left out

[3] = test system: HT29 colon cancer cells; assay: Cellular proliferation and viability of HT29 colon cancer cells; type: cell-based, human
Protocol: Cell Culture Conditions. Human HT 29 colon cancer cells were purchased from the American Type Culture Collection. Cells were maintained in Dulbecco's Modified Eagle's Medium (DME) supplemented with 5% heat-inactivated fetal bovine serum, 2 mM glutamine, and antibiotics (DME/5%). All cell lines were incubated in a humidified 5% CO2/air environment. They were maintained at 37° C. in 5% CO2 covered in aluminum foil to prevent exposure to the light. A total of 1×10^6 cells were incubated per flask and allowed to attach overnight. Media was changed every third day. Cell counts were performed on a Coulter Counter following detachment of cells by standard trypsinization procedures. […] The period of exposure was followed by incubation in the absence of biliverdine. Cell numbers were monitored until proliferation resumed. The production of CEA and alkaline phosphatase was measured as described below.
The HT29 colon cancer cells were incubated with different concentrations of biliverdine and their response studied to identify the concentration ranges required to elicit a biological and/or a toxicological response (Table III).

[4] = test system: p 21 content in HT 29 Colon Cancer Cells; assay: p21 content in HT 29 colon cancer cells; type: cell-based, human; details: HT 29 low-density culture
Protocol: Biliverdin IXα exerts powerful effects on human colon cancer HT 29 cells. Normally, the contents of p21 and p27, known inhibitors of the CDK system, increase as control HT 29 cells become confluent and reach stationary phase. […] In contrast, addition of 4×10^−7 M biliverdin to the incubation medium of the low-density cultures, results in persistence and/or progressive increase in p21 and p27 content starting as early as 16 hs. This effect on p21 induction is dependent on one or both of the propionic acid side chains of biliverdin.

[5] = test system: Liposarcoma cells; assay: Cellular triacyl glycerol (TAG) content, liposarcoma; type: cell-based, human; details: insulin 5 μg/ml, pituitary extract 20 μg/ml, biliverdin 4 × 10^−7 M where present
Protocol: Expression of differentiation markers. Carcinoembryogenic antigen in cell supernatants collected each three days was assayed by standard ELISA determinations using an IMX assay for quantitative measurement of the antigen. Cellular triacyl glycerol content was measured spectrophotometrically by enzymatic hydrolysis and analysis of the amount of glycerol released using a standard assay, Triglyceride (INT) 10 (Sigma Diagnostics). Cellular alkaline phosphatase activity was determined by measuring the fluorescence change induced by the hydrolysis of 4-methylumbelliferylphosphate. The fluorescence is detected at 450 nm with an excitation of 365 nm, using a Jobin Ivon-Spex Fluoro Max-2 fluorimeter. The alkaline phosphatase activity detected was expressed in units of μmol/mg protein/min.
Liposarcoma cells also accumulate triacyl glycerol in response to biliverdin. The extent of the accumulation is determined by the composition of the incubation media. Triacyl glycerol is induced in liposarcoma cells by insulin alone. The amount increases when bovine pituitary extract is added with the insulin. The highest production is achieved, however, when biliverdin is combined with insulin plus bovine pituitary extract.

[6] = test system: Normal Fibroblast (3T3-L1 fibroblasts); assay: Cellular triacyl glycerol (TAG) content, normal fibroblast; type: cell-based
Protocol: Expression of differentiation markers. Carcinoembryogenic antigen in cell supernatants collected each three days was assayed by standard ELISA determinations using an IMX assay for quantitative measurement of the antigen. Cellular triacyl glycerol content was measured spectrophotometrically by enzymatic hydrolysis and analysis of the amount of glycerol released using a standard assay, Triglyceride (INT) 10 (Sigma Diagnostics). […] The fluorescence is detected at 450 nm with an excitation of 365 nm, using a Jobin Ivon-Spex Fluoro Max-2 fluorimeter. The alkaline phosphatase activity detected was expressed in units of μmol/mg protein/min. These compounds also affect the timing for the fat accumulation. After 9 days of incubation with insulin and bovine pituitary extract, but without biliverdin, the fat droplets in the cells are small and scattered diffusely throughout the cell. These globules continue to enlarge to fill most of the cytoplasmic space by day 14. In contrast, by day 7 the cells incubated in the presence of biliverdin already contain large, grouped and prominent droplets. While the triacyl glycerol content increases in both HT 29 and liposarcoma cells, the fat droplets in HT 29 cells are smaller than those that fill the cytoplasm of the liposarcoma cells. 3T3-L1 fibroblasts differentiate into adipocytes in the presence of insulin (Table VII). In the absence of biliverdin, this hormone increases the triacylglycerol content of 3T3-L1 fibroblasts by 3-fold relative to control. When biliverdin is added, a progressively greater content of triacyl glycerol is achieved at day 9. The increase is dependent on the biliverdin concentration. At the highest concentration used, 4×10^−7 M, there is a 5.8-fold increase of triacyl glycerol content over that of the undifferentiated fibroblasts (Table VII). This almost doubles the amount in the cells incubated with differentiation medium alone and is nearly as high as observed with troglitazone. At a lower biliverdin concentration, 10^−8 M, there is a 3.5-fold increase compared to control values. Remarkably, the amounts of biliverdin required to achieve the effects on proliferation, cell cycle and differentiation marker up-regulation, i.e. 10^−7-10^−06 M, are the same as those needed to re-establish the capacity of embryos depleted of the tetrapyrrole by treatment with UV-light to form a dorsal axis.

Row | Compound | recovery of dorsal axial structures ([1]; 254 or 366 nm UV-irradiated embryos, μM amounts) | recovery of dorsal axis formation ([1]; UV-irradiated embryos, 3.7 μM) | average DAI of control embryos [2] | activity on human colon adenocarcinoma cells (p21/p27, G1, proliferation arrest, differentiation markers) [3] | p21 content in words [4] | % Change of TAG [5] [%] | TAG ([5]; control 12.3) [mg/10^6 cells] | increase of triacylglycerol content relative to control ([6]; 3T3-L1 fibroblasts, insulin in the absence of biliverdin) [fold] | % Change of TAG ([6]; Normal Fibroblast, insulin 5 μg/ml, biliverdin 4 × 10^−7 M where present) [%] | TAG ([6]; Normal Fibroblast, insulin 5 μg/ml, biliverdin 4 × 10^−7 M where present, control 9.3) [mg/10^6 cells]
1 | C=CC1=C(C)/C(=C/C2=NC(=C\c3[nH]c(/C=C4\NC(=O)C(C)=C4C=C)c(C)c3CCC(=O)OC)/C(CCC(=O)OC)=C2C)NC1=O.Cl [biliverdin dimethyl ester hydrochloride, reference compound] | does not induce recovery | no recovery | 5 | inactive | nearly undetectable |  |  |  |  | 
2 | Insulin: hormone; differentiates 3T3-L1 fibroblasts into adipocytes |  |  |  |  |  | 139 | 17.1 | 3 | 304 | 28.3
